# PubChem BioAssay (NCI)
# Where “and” joins values, the source holds several entries; their conditions need not be identical. Equal entries are not always repeated.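 Method: 48-hour compound exposure of cells in 96-well plates, five concentrations, linear interpolation of endpoints. Here, GI50 denotes the concentration required for 50% inhibition of growth. At the TGI there is no net growth.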
# Tested on: MDA-MB-468 breast
# Assay: NCI-60 cell line screen, 48 h
SMILES,GI50,TGI
C[N+](C)(C)CC(=O)N/N=C(\C(=O)NC1=C(Cl)C(=O)c2ccccc2C1=O)C(C#N)c1nc(-c2ccc([N+](=O)[O-])cc2)cs1 (stereo not given),3.89 µM,16 µM
COc1cc2nccc(Oc3ccc(NC(=O)Nc4cc(C)on4)c(Cl)c3)c2cc1OC,2.34 µM and 2.93 µM,8.09 µM and > 10 µM
COc1cc(-c2csc(NC(=O)Nc3ccc(C(F)(F)F)cc3)n2)cc(OC)c1OC,1.72 µM,5.71 µM
CCCN(CCC)c1ccc(/C=N/NC(=O)c2cccnc2)c(OC)c1,6.22 µM,58.9 µM
Oc1c(Cl)cc(Cl)cc1C(c1cc(Cl)cc(Cl)c1O)C(Cl)(Cl)Cl,2.17 µM,7.63 µM
Cc1cc2c(C(N)=O)c(N)n(-c3c(C)ccc(O)c3C)c2nc1C,8.69 µM,29.7 µM
Clc1ccccc1CNc1c2ccccc2nc2ccccc12,1.12 µM,3.04 µM
CC(CN(C)C)Oc1ccccc1NC1=C(Cl)C(=O)C(Nc2ccccc2OC(C)CN(C)C)=C(Cl)C1=O (stereo not given),0.163 µM,0.328 µM
CCc1ccc(C(=Nc2ccc(N(C)C(=O)CN3CCN(C)CC3)cc2)c2c(O)[nH]c3ccc(C(=O)OC)cc23)cc1,0.73 µM,2.35 µM
O=C(N/N=C/c1ccc(O)cc1O)c1cccc(Nc2ccnc(C(F)(F)F)c2)c1,0.626 µM,> 58.3 µM
C=C(CO)[C@@H]1CC[C@]2(COC3CCCCO3)CC[C@]3(C)[C@H](CC[C@@H]4[C@@]5(C)C=C(C=O)C(=O)C(C)(C)[C@@H]5CC[C@]43C)[C@@H]12 (stereo not given in full),0.244 µM,0.665 µM
O=C(O)c1c(=O)cccc2ssc12,2.14 µM,4.38 µM
O=[N+]([O-])c1cc(C(F)(F)F)ccc1Sc1ccc(C(F)(F)F)cc1[N+](=O)[O-],3.67 µM,> 100 µM
OCCNc1nc(Nc2ccc(Cl)c(Cl)c2)nc2ccccc12,1.83 µM,5.3 µM
O=C(/C=C/C12c3ccccc3C(c3ccccc31)C1C(=O)NC(=O)C12)c1ccc(F)cc1 (stereo not given),1.99 µM,4.1 µM
CCOC(=O)c1ccc(NC2=C(Cl)C(=O)c3nc(C)ccc3C2=O)cc1,1.66 µM,3.54 µM
CN1CCN(c2ccc(NC(=O)c3cncnc3Nc3ccc(OCc4ccccn4)c(Cl)c3)cc2)CC1,3.88 µM,9.39 µM
O=C1C=CC(=O)N1c1cccc(N2C(=O)C=CC2=O)c1,1.88 µM,3.99 µM
Cc1ccc(NS(=O)(=O)c2cccc(C#N)c2)c2[nH]cc(C#N)c12,4.44 µM,58.2 µM
CC([C@H]1CCC2C3CCC4C[C@@H](N)CC[C@]4(C)C3CC[C@@]21C)N(C)C (stereo not given in full),1.57 µM,4.83 µM
COc1ccc2c(c1)C(=O)/C(=C/c1ccc([N+](=O)[O-])o1)O2,0.818 µM,2.56 µM
CC1(C)NCCC[C@]2(C)[C@H]3CC[C@@H]4[C@H]5[C@H](C(=O)/C=C/c6ccccn6)CC[C@]5(CO)CC[C@@]4(C)[C@]3(C)CC[C@@H]12,2.08 µM,4.77 µM
CC(=O)O[C@H]1[C@@H]2OC(=O)C(CSc3ccccc3)[C@@H]2C[C@H]2O[C@]2(C)CC/C=C(\C)CCC[C@@H]1C (stereo not given in full),1.46 µM,3.62 µM
O=C1/C(=C/c2ccc(Cl)cc2)CCC/C1=C\c1ccc(Cl)cc1,3.08 µM,9.21 µM
Cc1cc(-c2ccccn2)cc(C)c1/C=C/c1cncc(-c2nn[nH]n2)c1,> 25 µM,> 25 µM
CCOC(=O)C#Cc1c(C(=O)OCC)nnn1Cc1ccc([N+](=O)[O-])cc1,1.96 µM,4.4 µM
C/C(O)=C(\C#N)C(=O)Nc1ccc(C(F)(F)F)cc1,37.2 µM,> 100 µM
COC(=O)c1ccc(NC2=C(Cl)C(=O)C(C)=C(C)C2=O)cc1,1.49 µM,3.1 µM
CC(=[N-])N1CCC[C@@H](Nc2c3ccccc3nc3ccccc23)C1.[Cl][Pt].[NH-]CCC[NH-],0.128 µM,0.901 µM
Cc1cc(N2CCOCC2)nc(N(CCCNc2ccnc3cc(Cl)ccc23)Cc2ccco2)n1,2.21 µM,7.33 µM
